# Laboratory results taken from ChEMBL document CHEMBL3727361, “Nitrogen bicyclic compounds as inhibitors for Scyl1 and Grk5” (2014).
# System: Beta-TC6
# Test: Increase in insulin release in mouse BetaTC6 cells assessed as relative insulin release activity at 10 uM incubated for 2 to 4 hrs by FRET based HTRF assay relative to sunitinib
# Assay type: functional
row,Structure (SMILES),Activity
1,CC(=O)Nc1ccc(-c2cnc3ccc(-c4ccc(N5CCOCC5)cc4)nn23)cc1,>=100%
2,COc1cc(-c2cnc3ccc(NCc4cccc(Cl)c4)nn23)ccc1O,20%
3,Nc1cccc(-c2ccc3ncc(-c4cccc(Cl)c4)n3n2)c1,20%
4,COc1cc(-c2ccc3nnc(-c4cccc(C(F)(F)F)c4)n3c2)cc(OC)c1OC,50%
5,COc1ccc(-c2cnc3cnc(-c4ccc(N)nc4)cn23)cc1,20%
6,CS(=O)(=O)c1ccc(-c2cnc3ccc(Cc4ccccc4)nn23)cc1,10%
7,N#Cc1ccc(-c2ccc3nnc(-c4cccc(O)c4)n3c2)cc1,50%
8,CN(C)CCCNC(=O)c1ccc(-c2cn3c(-c4ccc5c(ccn5C)c4)cnc3cn2)cc1,20%
9,c1cc(-c2cn3c(-c4ccc5c(c4)OCO5)cnc3cn2)cs1,50%
10,COc1ccc(-c2cnc3ccc(NCCCO)nn23)c(OC)c1,10%
11,COc1cc(C#Cc2ccc3nnc(-c4ccc(OCCCN(C)C)cc4)n3c2)cc(OC)c1,20%
12,CN(C)CCCOc1ccc(-c2nnc3ccc(C#Cc4ccc(C(=O)N(C)C)cc4)cn23)cc1,20%
13,Nc1ccc(-c2cn3c(NC(=O)c4ccccc4)cnc3cn2)cc1,20%
14,COc1cccc(C#Cc2ccc3nnc(-c4cccc(OC(F)(F)F)c4)n3c2)c1,20%
15,N#Cc1ccc(-c2cnc3cnc(-c4cccs4)cn23)cc1,20%
16,FC(F)(F)Oc1cccc(-c2nnc3ccc(-c4cccs4)cn23)c1,50%
17,CN1CCN(C(=O)c2cccc(-c3cnc4cnc(-c5ccc6c(c5)OCO6)cn34)c2)CC1,20%
18,C(#Cc1ccccn1)c1ccc2nnc(-c3ccccc3)n2c1,50%
19,COc1ccc(-c2ccc3ncc(-c4cccc(Cl)c4)n3n2)c(C)c1,10%
20,COc1cc(-c2cnc3cnc(-c4ccc(N5CCN(C)CC5)nc4)cn23)ccc1O,20%
21,CS(=O)(=O)Nc1cccc(-c2cn3c(-c4ccc(Oc5ccccc5)cc4)cnc3cn2)c1,20%
22,c1cncc(-c2cnc3ccc(-c4ccoc4)nn23)c1,20%
23,CCOc1cccc(-c2cnc3cccnn23)c1,10%
24,COc1ccc(-c2ccc3nnc(-c4ccccc4C)n3c2)cc1OC,50%
25,CN(C)c1ccc(-c2cnc3cnc(-c4ccc(C(=O)NCCO)cc4)cn23)cc1,50%
26,CNc1ccc2ncc(-c3ccccc3O)n2n1,20%
27,COc1ccc(-c2ccc3nnc(-c4ccccc4)n3c2)c(C)c1,>=100%

row,Structure (SMILES),Activity
1,c1ccc(-c2nnc3ccc(-c4ccc5c(c4)OCO5)cn23)cc1,50%
2,c1cncc(CCNc2ccc3ncc(-c4ccc5ccccc5c4)n3n2)c1,10%
3,CC(C)c1cccc(-c2ccc3nnc(-c4cccnc4)n3c2)c1,50%
4,COc1ccc(-c2nnc3ccc(C#Cc4ccncc4)cn23)cc1OC,50%
5,N#Cc1cccc(-c2cnc3cccnn23)c1,20%
6,c1cncc(-c2cnc3cnc(-c4cc5ccccc5s4)cn23)c1,20%
7,c1cncc(-c2cnc3ccc(-c4cccs4)nn23)c1,20%
8,O=S1(=O)CCN(CC#Cc2ccc3nnc(-c4cscn4)n3c2)CC1,10%
9,OCc1cccc(-c2ccc3nnc(-c4ccccn4)n3c2)c1,20%
10,c1ccc(-c2cnc3cnc(-c4ccsc4)cn23)cc1,20%
11,O=C(O)CCc1ccc(-c2cnc3cnc(-c4cccs4)cn23)cc1,20%
12,COc1ccc(-c2cn3c(-c4ccc(N(C)C)cc4)cnc3cn2)cn1,50%
13,Clc1ccc(-c2cnc3cnc(-c4cccs4)cn23)cc1,20%
14,COc1ccc(-c2cnc3ccc(NCc4cccs4)nn23)c(OC)c1,20%
15,CNc1ccc2ncc(/C=C\CCCO)n2n1,10%
16,CCOc1cccc(-c2cn3c(-c4cccc(CO)c4)cnc3cn2)c1,20%
17,COc1ccc(-c2cnc3cnc(-c4cccs4)cn23)cc1,20%
18,CN(C)c1ccc(-c2cnc3cnc(-c4cccc(C(=O)NCCO)c4)cn23)cc1,20%
19,Fc1ccc(-c2cn3c(-c4ccsc4)cnc3cn2)cc1Cl,20%
20,Clc1cccc(-c2nnc3ccc(-c4ccc5c(c4)OCO5)cn23)c1,50%
21,N#Cc1cccc(-c2nnc3ccc(-c4ccccn4)cn23)c1,20%
22,FC(F)(F)Oc1cccc(-c2ccc3nnc(-c4ccncc4)n3c2)c1,20%
23,c1ccc(Cn2cc(-c3cn4c(-c5ccc6c(c5)OCO6)cnc4cn3)cn2)cc1,50%
24,Oc1cccc(-c2cnc3cnc(/C=C/c4ccccc4)cn23)c1,20%
25,O=C(NC1CC1)c1ccc(-c2cn3c(-c4ccccc4)cnc3cn2)cc1,20%
26,COc1ccc(-c2cnc3ccc(NCCCO)nn23)cc1,10%
27,CS(=O)(=O)Nc1ccc(-c2cnc3cccnn23)cc1,10%

row,Structure (SMILES),Activity
1,O=C(NC1CC1)c1ccc(-c2cnc3cccnn23)cc1,10%
2,COc1cc(-c2cnc3cnc(-c4ccc(N)nc4)cn23)ccc1O,20%
3,O=C(NCCO)c1cccc(-c2cn3c(-c4cccc(OC(F)(F)F)c4)cnc3cn2)c1,20%
4,COc1cccc(CC(=O)Nc2cnc3cnc(-c4ccccc4CN(C)C)cn23)c1,20%
5,Clc1ccccc1-c1ccc2nnc(-c3cccnc3)n2c1,50%
6,Cn1cc(-c2ccc3nnc(-c4ccc5c(c4)OCO5)n3c2)cn1,50%
7,CSc1ccc(-c2cn3c(-c4cccnc4)cnc3cn2)cc1,20%
8,CN1CCN(c2ccc(-c3cn4c(-c5ccc(C(=O)N(C)C)cc5)cnc4cn3)cn2)CC1,20%
9,COc1ccc(-c2cnc3cnc(-c4ccc(N5CCN(C)CC5)cc4)cn23)cn1,20%
10,c1csc(-c2ccc3nnc(-c4ccoc4)n3c2)c1,50%
11,c1csc(-c2cnc3cnc(-c4ccsc4)cn23)c1,50%
12,N#Cc1ccc(-c2cnc3cnc(-c4ccc(CO)cc4)cn23)cc1,20%
13,O=C(O)CCc1ccc(-c2cnc3cnc(-c4ccccc4CO)cn23)cc1,20%
14,CC(=O)c1cccc(-c2cn3c(NC(=O)CC4CC4)cnc3cn2)c1,20%
15,Oc1cccc(-c2nnc3ccc(-c4cccc5ncccc45)cn23)c1,20%
16,COc1cc(-c2ccc3ncc(-c4ccc(F)c(Cl)c4)n3n2)cc(OC)c1OC,10%
17,CS(=O)(=O)Nc1cccc(-c2cnc3ccc(Cc4ccc(F)cc4)nn23)c1,10%
18,c1nc(-c2nnc3ccc(-c4ccc(N5CCOCC5)cc4)cn23)cs1,50%
19,Clc1cccc(-c2nnc3ccc(-c4cncc5ccccc45)cn23)c1,50%
20,COc1cc(-c2cn3c(-c4ccc5c(ccn5C)c4)cnc3cn2)ccc1O,20%
21,Cn1cc(-c2cnc3cnc(-c4ccncc4)cn23)cn1,20%
22,CC(=O)Nc1cccc(-c2cn3c(-c4ccc(C(=O)N(C)C)cc4)cnc3cn2)c1,20%
23,Cc1ccccc1-c1cnc2cnc(-c3cccs3)cn12,10%
24,CSc1ccc(-c2cnc3cccnn23)cc1,10%
25,CN(C)/C(=C1\N=C(c2ccccc2)OC1=O)c1cnc2cccnn12,10%
26,CN(C)c1cccc(-c2cn3c(NC(=O)c4ccccc4)cnc3cn2)c1,50%
